Legend:
[1] = target: T1, Adrenergic receptor alpha-2 (Homo sapiens, UniProt P08913+P18825+P18089); test: Antagonist activity at adrenergic alpha 2 receptor in human brain membrane assessed as inhibition of UK14304-induced stimulation of [35S]GTPgammaS binding by liquid scintillation spectroscopy (reference value: 1.77 +/- […]); assay type: functional, cell membranes
T1 sequence (P08913 whole entry): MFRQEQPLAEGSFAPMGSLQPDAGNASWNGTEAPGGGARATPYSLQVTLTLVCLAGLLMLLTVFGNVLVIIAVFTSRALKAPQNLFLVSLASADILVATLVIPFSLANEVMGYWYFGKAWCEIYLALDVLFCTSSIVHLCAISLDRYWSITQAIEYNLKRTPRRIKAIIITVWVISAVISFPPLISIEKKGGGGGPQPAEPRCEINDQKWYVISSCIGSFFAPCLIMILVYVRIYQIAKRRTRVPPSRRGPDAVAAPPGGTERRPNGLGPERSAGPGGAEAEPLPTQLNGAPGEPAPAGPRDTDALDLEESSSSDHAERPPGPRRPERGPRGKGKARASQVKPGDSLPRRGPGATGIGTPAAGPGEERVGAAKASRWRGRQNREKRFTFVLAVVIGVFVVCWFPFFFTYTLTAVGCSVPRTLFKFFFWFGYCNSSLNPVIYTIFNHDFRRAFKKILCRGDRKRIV
T1 sequence (P18825 whole entry): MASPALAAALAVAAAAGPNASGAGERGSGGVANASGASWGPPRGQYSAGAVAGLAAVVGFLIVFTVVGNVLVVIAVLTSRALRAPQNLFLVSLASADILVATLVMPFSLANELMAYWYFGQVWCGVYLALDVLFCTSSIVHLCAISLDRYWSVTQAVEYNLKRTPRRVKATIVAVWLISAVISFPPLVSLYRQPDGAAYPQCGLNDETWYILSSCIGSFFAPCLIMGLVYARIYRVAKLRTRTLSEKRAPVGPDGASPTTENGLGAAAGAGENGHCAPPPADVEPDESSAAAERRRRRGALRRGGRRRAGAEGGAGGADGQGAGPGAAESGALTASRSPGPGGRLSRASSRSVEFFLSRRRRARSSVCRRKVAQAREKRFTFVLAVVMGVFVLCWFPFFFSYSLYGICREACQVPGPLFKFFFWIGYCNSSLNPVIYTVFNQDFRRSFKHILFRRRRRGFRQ
T1 sequence (P18089 whole entry): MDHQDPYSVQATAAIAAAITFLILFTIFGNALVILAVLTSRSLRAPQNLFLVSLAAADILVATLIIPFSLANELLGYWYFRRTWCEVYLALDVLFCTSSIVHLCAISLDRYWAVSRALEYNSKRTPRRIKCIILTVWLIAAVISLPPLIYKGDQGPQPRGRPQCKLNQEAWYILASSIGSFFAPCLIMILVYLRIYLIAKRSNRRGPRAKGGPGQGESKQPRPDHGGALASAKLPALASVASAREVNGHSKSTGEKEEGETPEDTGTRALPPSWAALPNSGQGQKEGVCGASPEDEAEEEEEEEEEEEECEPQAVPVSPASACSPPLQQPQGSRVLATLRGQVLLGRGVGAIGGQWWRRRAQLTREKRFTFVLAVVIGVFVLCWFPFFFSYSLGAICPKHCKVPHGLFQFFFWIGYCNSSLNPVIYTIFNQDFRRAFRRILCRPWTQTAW

[2] = target: T1, Adrenergic receptor alpha-2; test: Agonist activity at adrenergic alpha 2 receptor in human brain membrane assessed as stimulation of [35S]GTPgammaS binding in presence of adrenergic alpha 2 receptor antagonist RX821002 by liquid scintillation spectroscopy; assay type: functional, cell membranes
[3] = target: T2, Adrenergic receptor alpha-2 (Homo sapiens) (UniProt P08913+P18825+P18089); test: Agonist activity at adrenergic alpha 2 receptor in human brain membrane assessed as stimulation of [35S]GTPgammaS binding at 10 uM in presence of adrenergic alpha 2 receptor antagonist RX821002 by liquid scintillation spectroscopy; assay type: functional, cell membranes; details: filed as agonist
[4] = target: T1, Adrenergic receptor alpha-2; test: Displacement of [3H]-RX821002 from adrenergic alpha 2 receptor in human brain membrane by liquid scintillation spectroscopy; assay type: cell membranes
[5] = target: T1, Adrenergic receptor alpha-2; test: Agonist activity at adrenergic alpha 2 receptor in human brain membrane assessed as stimulation of [35S]GTPgammaS binding by liquid scintillation spectroscopy; assay type: functional, cell membranes
[6] = target: T2, Adrenergic receptor alpha-2 (Homo sapiens); test: Agonist activity at adrenergic alpha 2 receptor in human brain membrane assessed as stimulation of [35S]GTPgammaS binding at 10 uM by liquid scintillation spectroscopy relative to control; assay type: functional, cell membranes; details: filed as agonist
[7] = target: T2, Adrenergic receptor alpha-2 (Homo sapiens); test: Antagonist activity at adrenergic alpha 2 receptor in human brain membrane assessed as inhibition of UK14304-induced stimulation of [35S]GTPgammaS binding at 10 uM by liquid scintillation spectroscopy (reference value: 153 +/- 4%); assay type: functional, cell membranes; details: filed as antagonist

SMILES	EC50 [1]	Ki [4]	Emax [7]	further results
Cl.Cl.N=C(NCc1ccco1)Nc1ccc(Cc2ccc(NC3=NCCN3)cc2)cn1	52.3 µM	33.9 nM	96%	EC50 [2]: 252 µM; Emax [3]: 154%; EC50 [5]: 194 µM; Emax [6]: 149%
Cl.Cl.N=C(NCc1ccco1)Nc1ccc(Cc2ccc(NC3=NCCN3)cc2)cc1	11.6 µM	1.77 nM	155%	EC50 [2]: 2356 µM; Emax [3]: 130%; EC50 [5]: 534 µM; Emax [6]: 168%
N=C(N)Nc1ccc2c(c1)CCCC2	–	77.6 nM	–	–
Cl.Cl.N=C(NCc1ccco1)Nc1ccc(Cc2ccc(NC3=NCCN3)nc2)cc1	–	433 nM	–	–
CCCNC(=N)Nc1ccc(Cc2ccc(NC3=NCCN3)cc2)cc1.Cl.Cl	30 µM	0.82 nM	171%	EC50 [2]: 487 µM; Emax [3]: 110%; EC50 [5]: 46 µM; Emax [6]: 139%
CCCNC(=N)Nc1ccc(Cc2ccc(NC3=NCCN3)nc2)cc1.Cl.Cl	4.14 µM	120 nM	139%	–
Cl.Cl.N=C(N)Nc1ccc(Cc2ccc(N=C3NCCN3)cc2)cc1	20.2 µM	12.3 nM	110%	EC50 [2]: 64020 µM; Emax [3]: 122%; EC50 [5]: 18 µM; Emax [6]: 126%
CCCNC(=N)Nc1ccc(Cc2ccc(NC(=N)NCCC)cc2)cc1.Cl.Cl	–	742 nM	–	–
Cl.Cl.N=C(N)Nc1ccc(Cc2ccc(NC3=NCCN3)cc2)cn1	39.9 µM	86.8 nM	140%	–
c1cc2c(cc1NC1=NCCN1)CCCC2	–	46.8 nM	–	–
Cl.Cl.N=C(N)Nc1ccc(Cc2ccc(NC3=NCCN3)nc2)cn1	–	138 nM	–	–
Cl.Cl.N=C(NCCO)Nc1ccc(Cc2ccc(NC(=N)NCCO)cc2)cc1	–	2485 nM	–	–
CCCNC(=N)Nc1ccc(CCc2ccc(NC3=NCCN3)cc2)cc1.Cl.Cl	–	1745 nM	–	–

Further lines, with some results ahead:

EC50 [1]	Ki [4]	Emax [7]	SMILES	further results
–	674 nM	–	Cl.Cl.N=C(N)Nc1ccc(Cc2ccc(NC3=NCCN3)nc2)cc1	–
–	175 nM	–	Cl.Cl.N=C(N)Nc1ccc(CCc2ccc(N=C3NCCN3)cc2)cc1	–
–	263 nM	–	Cl.Cl.N=C(NCc1ccco1)Nc1ccc(Cc2ccc(NC3=NCCN3)nc2)cn1	–
–	165.9 nM	–	N=C(N)NC1C=C2CCCCC2=CN1 (stereo unspecified)	–
–	418 nM	–	Cl.Cl.N=C(NCc1ccco1)Nc1ccc(CCc2ccc(NC3=NCCN3)cc2)cc1	–
10.2 µM	89.9 nM	127%	CCCNC(=N)Nc1ccc(Cc2ccc(NC3=NCCN3)nc2)cn1.Cl.Cl	–
–	355 nM	–	Cl.Cl.N=C(NCc1ccco1)Nc1ccc(Cc2ccc(NC(=N)NCc3ccco3)cc2)cc1	–
30.8 µM	67.6 nM	122%	CCCNC(=N)Nc1ccc(Cc2ccc(NC3=NCCN3)cc2)cn1.Cl.Cl	–
–	231.8 nM	–	CN(C)c1ccc(/N=C(/N)NCc2ccco2)cc1	–
87.2 µM	–	98%	COC1(C2=NCCN2)COc2ccccc2O1 (stereo unspecified)	–

From ChEMBL document CHEMBL4732085, “Di-aryl guanidinium derivatives: Towards improved α2-Adrenergic affinity and antagonist activity” (Eur J Med Chem, 2021)
